Consider 14 molecules from patent US20240287029A1, “SULFONAMIDES, METHOD FOR PREPARATION THEREOF, AND USE THEREOF” (CHENGDU SHIBEIKANG BIOMEDICAL TECHNOLOGY CO., LTD., priority 2021, published 2024).

Marks after values point to notes of the source that are not given here.

For one data set, the target named is T1, human P2X3 receptor (Homo sapiens, UniProt P56373).
T1 sequence (P56373 1-397): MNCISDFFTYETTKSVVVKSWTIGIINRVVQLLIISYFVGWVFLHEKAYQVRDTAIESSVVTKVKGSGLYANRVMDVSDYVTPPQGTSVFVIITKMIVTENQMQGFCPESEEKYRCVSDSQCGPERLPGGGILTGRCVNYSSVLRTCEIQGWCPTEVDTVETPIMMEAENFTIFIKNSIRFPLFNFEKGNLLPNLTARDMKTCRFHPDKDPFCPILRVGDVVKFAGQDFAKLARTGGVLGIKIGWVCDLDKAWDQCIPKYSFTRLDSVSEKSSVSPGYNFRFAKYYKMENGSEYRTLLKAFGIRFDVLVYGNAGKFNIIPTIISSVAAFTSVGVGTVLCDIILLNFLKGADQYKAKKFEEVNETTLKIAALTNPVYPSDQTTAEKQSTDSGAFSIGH
Kind of data set: In vitro biological activity evaluation, P2X3 antagonist mode FLIPR assay with BZATP agonist.

The test system of data set [1] is ammonia-induced coughs in mice. Kind of data set: Mouse coughing test (concentrated ammonia induced cough). The data set is classed as in vivo. The note with it: KM mice, 30 mg/kg intragastric; for duration of cough-relieving action compared to Comparative Compound 1: 60 and 120 min; for Number of coughs: 30 min after administration; for Number of coughs / Number of coughs 60 min / Number of coughs 120 min: coughs within 3 min, group mean; for Number of coughs 60 min: 60 min after administration; for Number of coughs 120 min: 120 min after administration. An excerpt: Healthy adult KM mice, half male and half female, 6 mice in each group, each weighing about 28-30 g.
Most of the animal coughing models reported in the literature use mechanical, chemical and electrical stimulation to stimulate the animal's nerves and receptors to trigger coughing. Based on the characteristics of the candidate compounds and the existing similar target compounds as a reference, the concentrated ammonia induction method was preliminarily selected to establish a coughing model in mice.
Preparation of 50% aqueous ammonia solution: 2.5 ml aqueous ammonia was dissolved in a 5 ml injection solution of 0.9% sodium chloride, and mixed well.
Preparation of solutions of the positive control and Comparative Compound 1: each of 9 mg positive control and 9 mg Comparative Compound 1 was weighed and dissolved in a 3 ml solution of 0.5% CMC-Na, and fully mixed, to obtain a 3 mg/ml solution.
Preparation of solutions of the compounds of Examples: 9 mg of the compound of each Example was dissolved in a 3 ml solution of 0.5% CMC-Na, and mixed thoroughly, to obtain a 3 mg/ml solution.
Grouping: Comparative Example 1 group, Positive control group, Example group, Model group. Six KM mice in each group were intragastrically given Comparative Compound 1 (30 mg/kg), the positive control (Gefapixant, purchased, 30 mg/kg), and an Example compound (30 mg/kg), and the model group was given an equal volume of 0.5% CMC-Na solution. 30 min, 60 min, or 120 min after administration, each mouse was placed in a 500 ml beaker, and a cotton ball (weight: 100±5 mg) containing 0.3 ml 50% aqueous ammonia was placed in the beaker. The number of typical coughs by the mouse within 3 min was observed (typical cough: contraction of the abdominal muscle or contraction of the chest, accompanied by wide opening of the mouth and a coughing sound).
• (1) Cough judgment criteria: Cough was judged by contraction of the abdominal muscle or contraction of the chest, accompanied by wide opening of the mouth and a coughing sound. • (2) The number of coughs by the mice within 3 min was recorded with a stop watch, and statistically analyzed with software. The data of each group were statistically expressed in mean±standard deviation, and one-way ANOVA between multiple groups was performed, P<0.05 for statistically significant difference.

For another data set, the system named is sense of taste of rats. Kind of data set: Taste disorder test (quinine water / tap water two-bottle drinking). The data set is classed as in vivo, SD rats. As to conditions: 10 mg/kg intravenous; for effect on the sense of taste: quinine water/tap water ratio vs solvent group, in words; for Quinine water/tap water (%): SD rats, drinking 0 to 15 min after administration, 0.3 mM quinine. As to the method: Preparation of 0.3 mM quinine solution: 119.20 mg quinine hydrochloride was weighed and dissolved in 1,000 ml tap water, and mixed well.
Preparation of test sample solution: 40 mg of the test sample was weighed and added to an appropriate amount of DMSO and dissolved, then a solution of solubilizer HS-15 was added thereto and mixed well, and 16 ml saline was added, to obtain a solution of 2.5 mg/ml.
Animals and grouping: male SD rats each about 160 to 180 g, 10 rats per group, with similar average weight in each group, fed in separate cages.
Drinking habit training: the animals in each group were given normal drinking water for 30 minutes at 8:30 am and 4:30 pm every day, with water deprivation for the rest of the day, and trained for 5 days, wherein two bottles of water placed in the left and right positions respectively were renewed every day.
Administration: After water deprivation over the night before the experiment, on the next morning 4 mL/kg (10 mg/kg) of the test sample was injected intravenously in the tail vein of the rats in the test group, and 4 mL/kg (10 mg/kg) of 0.5% HS-15 was injected intravenously in the model group.
• (1) Drinking water measurement: after injection, the animals were put back to their original cages, and the measurement time of each group was in the window covering the Tmax of the drugs (the measurement time was from 0 min to 15 min after administration); in each cage a bottle of normal drinking water and a bottle of drinking water containing 0.3 mM quinine hydrochloride (Quinie) were placed, and the left and right positions of the two bottles in all cages were the same. The animals were allowed to drink freely for 15 min, and the volume of water consumed from the two bottles was measured separately, accurate to 0.1 ml. • (2) Statistical analysis of data: the volume of the consumed quinine bitter water and the volume of the consumed tap water were measured, the percentage of quinine water relative to tap water was calculated, and ANOVA was used to check whether there was a significant difference between the groups.

In data set [2] the test system is refractory or unexplained chronic cough in adult patients. As to conditions: cited from earlier work.

From the text for human P2X3 receptor: A HEK293 cell line stably transfected with human P2X3 receptor was used.

A word on the IC50: it is the concentration that inhibits the measured activity by half. The low end stands for inhibition by little substance, the high end for a need for much substance. Consider `CNS(=O)(=O)NC(=O)[C@@H](C)Cn1c(=O)nc(Nc2ccc(Oc3ccc(Cl)cn3)cc2)n(Cc2ccc(Cl)cc2)c1=O` [Example 10], for which the IC50 on human P2X3 receptor was less than 10 nM. In addition, in data set [1] (in words), the “duration of cough-relieving action compared to Comparative Compound 1” value (“duration … compared to Comparative Compound 1” for short) was “significantly prolonged”. In data set [1], the Number of coughs was 20.27**, the “Number of coughs 60 min” value was 20.33** and the “Number of coughs 120 min” value is recorded as 24.13**^Δ.
In turn, `C[C@@H](Cn1c(=O)nc(Nc2ccc(Oc3ccccn3)cc2)n(Cc2ccc(Cl)cc2)c1=O)C(=O)O` [Comparative Example 1, reference compound] displayed an IC50 at human P2X3 receptor of less than 10 nM. For the same molecule, in data set [1], the Number of coughs is 15.61**, the “Number of coughs 60 min” value was 22.29** and the “Number of coughs 120 min” value is 45.21. In addition, the “cough relieving effect 120 min after administration” value in data set [1] (vs model group, in words) is given as “did not have an obvious cough relieving effect”.
Consider `CS(=O)(=O)NC(=O)C1(Cn2c(=O)nc(Nc3ccc(Oc4ccccn4)cc3)n(Cc3ccc(Cl)cc3)c2=O)CC1` [Example 12], for which, at human P2X3 receptor, the IC50 is less than 10 nM. Also, in data set [1] (in words), the “duration … compared to Comparative Compound 1” value was “significantly prolonged”. Further, in data set [1], the Number of coughs was 19.39**, the “Number of coughs 60 min” value is on record as 20.17** and the “Number of coughs 120 min” value was 24.14**^Δ. For the same molecule, in the data set with sense of taste of rats, the “effect on the sense of taste” value is “almost no effect” and the “Quinine water/tap water (%)” value worked out at 39.39%^Δ.
Molecule `C[C@@H](Cn1c(=O)nc(Nc2ccc(Oc3ccccn3)cc2)n(Cc2ccc(Cl)cc2)c1=O)C(=O)NS(=O)(=O)C(F)(F)F` [Example 4] registered an IC50 on human P2X3 receptor of 10.1 to 100 nM. Moreover, the Number of coughs in data set [1] is 28.61*.
`CC(C)NS(=O)(=O)NC(=O)[C@@H](C)Cn1c(=O)nc(Nc2ccc(Oc3ccccn3)cc2)n(Cc2ccc(Cl)cc2)c1=O` [Example 6]: the IC50 at human P2X3 receptor is less than 10 nM. In data set [1] (in words), the “duration … compared to Comparative Compound 1” value was “significantly prolonged”. In data set [1], the Number of coughs was 20.60**, the “Number of coughs 60 min” value is listed as 17.63** and the “Number of coughs 120 min” value is 28.78*^Δ. For the same molecule, in the data set with sense of taste of rats, the “effect on the sense of taste” value was “almost no effect” and the “Quinine water/tap water (%)” value came to 41.54%^Δ.
In the case of `C[C@@H](Cn1c(=O)nc(Nc2ccc(Oc3ccccn3)cc2)n(Cc2ccc(Cl)cc2)c1=O)C(=O)NS(=O)(=O)c1ccccc1` [Example 7], the IC50 on human P2X3 receptor lay within 10.1 to 100 nM. Further, in data set [1], the Number of coughs is listed as 28.66*.
In the case of `COc1cc(C(C)C)c(Oc2cnc(N)nc2N)cc1S(N)(=O)=O` [Positive control, Gefapixant], in data set [2] (15 mg twice daily), the primary endpoint result is “did not meet the primary endpoint”. Besides, the 24-hour cough frequency entry in data set [2] (45 mg twice daily, Week 12 (COUGH-1) and Week 24 (COUGH-2), compared with placebo) is given as “statistically significant reduction”. Further, in data set [2] (45-mg group), the “discontinuation due to adverse events” value was “higher frequency” and the taste-related adverse events entry is recorded as “higher incidence”. In addition, the Number of coughs in data set [1] was 20.51**. For the same molecule, in the data set on sense of taste of rats, the “Quinine water/tap water (%)” value is reported as 79.01%**.
On human P2X3 receptor, `CC(C)(Cn1c(=O)nc(Nc2ccc(Oc3ccccn3)cc2)n(Cc2ccc(Cl)cc2)c1=O)C(=O)NS(C)(=O)=O` [Example 11] showed an IC50 of less than 10 nM. In data set [1] (in words), the “duration … compared to Comparative Compound 1” value was “significantly prolonged”. In data set [1], the Number of coughs is 17.62**, the “Number of coughs 60 min” value was 16.68** and the “Number of coughs 120 min” value is given as 18.90**^Δ. In addition, in the data set with sense of taste of rats, the “effect on the sense of taste” value is “almost no effect” and the “Quinine water/tap water (%)” value was found to be 37.12%^Δ.
Regarding `C[C@@H](Cn1c(=O)nc(Nc2ccc(Oc3ccccn3)cc2)n(Cc2ccc(Cl)cc2)c1=O)C(=O)NS(=O)(=O)N1CCCC1` [Example 5], the IC50 at human P2X3 receptor is less than 10 nM. The “duration … compared to Comparative Compound 1” value in data set [1] (in words) is given as “significantly prolonged”. In data set [1], the Number of coughs was 12.85**, the “Number of coughs 60 min” value was 16.25** and the “Number of coughs 120 min” value was 23.11**^Δ.
Molecule `Cc1ccc(S(=O)(=O)NC(=O)[C@@H](C)Cn2c(=O)nc(Nc3ccc(Oc4ccccn4)cc3)n(Cc3ccc(Cl)cc3)c2=O)cc1` [Example 9] came in with an IC50 on human P2X3 receptor of 10.1 to 100 nM. Also, the Number of coughs in data set [1] was 25.11*.
On human P2X3 receptor, `C[C@@H](Cn1c(=O)nc(Nc2ccc(Oc3ccc(OC(F)F)cn3)cc2)n(Cc2ccc(Cl)cc2)c1=O)C(=O)NS(=O)(=O)c1ccc(F)cc1` [Example 8, (S)-3-(3-(4-chlorobenzyl)-4-(4-(5-(5-(difluoromethoxy)pyridin-2-yl)oxyphenyl)amino)-2,6-dioxo-3,6-dihydro-1,3,5-triazin-1(2H)-yl)-N-(4-(4-fluorophenyl)sulfonyl)-2-methylpropionamide] yielded an IC50 of 10.1 to 100 nM. For the same molecule, the Number of coughs in data set [1] is recorded as 29.83*.
The corresponding values for `CCS(=O)(=O)NC(=O)[C@@H](C)Cn1c(=O)nc(Nc2ccc(Oc3ccccn3)cc2)n(Cc2ccc(Cl)cc2)c1=O` [Example 2] are less than 10 nM and 17.12**.
For `C[C@@H](Cn1c(=O)nc(Nc2ccc(Oc3ccccn3)cc2)n(Cc2ccc(Cl)cc2)c1=O)C(=O)NS(=O)(=O)N(C)C` [Example 3], the IC50 at human P2X3 receptor is less than 10 nM. Further, the “duration … compared to Comparative Compound 1” value in data set [1] (in words) is listed as “significantly prolonged”. Also, in data set [1], the Number of coughs is listed as 15.34**, the “Number of coughs 60 min” value is 16.98** and the “Number of coughs 120 min” value is listed as 18.56**^Δ. Also, in the data set with sense of taste of rats, the “effect on the sense of taste” value is listed as “almost no effect” and the “Quinine water/tap water (%)” value is 38.11%^Δ.
On to `C[C@@H](Cn1c(=O)nc(Nc2ccc(Oc3ccccn3)cc2)n(Cc2ccc(Cl)cc2)c1=O)C(=O)NS(C)(=O)=O` [Example 1], for which the IC50 at human P2X3 receptor is less than 10 nM. For the same molecule, in data set [1] (in words), the “duration … compared to Comparative Compound 1” value was “significantly prolonged”. Moreover, in data set [1], the Number of coughs is reported as 13.33**, the “Number of coughs 60 min” value was 18.37** and the “Number of coughs 120 min” value is 17.28**^Δ. For the same molecule, in the data set with sense of taste of rats, the “effect on the sense of taste” value is “almost no effect” and the “Quinine water/tap water (%)” value stood at 37.01%^Δ.
